The values that follow come from ChEMBL document CHEMBL5512597, “Triazole hybrid compounds: A new frontier in malaria treatment” (Eur J Med Chem, 2023).

Data set [1] has as its system Plasmodium falciparum. The experiment in a line: Antimalarial activity against Plasmodium falciparum 3D7 infected in erythrocytes assessed as parasite growth inhibition incubated for 42 hrs by [3H]-hypoxanthine incorporation assay. In kind it is functional, organism-based. Particulars: 3D7, Erythrocyte.
The subject of data set [2] is Plasmodium falciparum. Put plainly: Antimalarial activity against CQ-resistant Plasmodium falciparum W2 assessed as parasite growth inhibition by LDH assay. In kind it is functional, organism-based.
For data set [3], the system named is Plasmodium falciparum. The experiment in a line: Antimalarial activity against CQ-sensitive Plasmodium falciparum D6 assessed as parasite growth inhibition by LDH assay. In kind it is functional, organism-based.
Data set [4] has as its system Plasmodium falciparum. Put plainly: Antimalarial activity against Plasmodium falciparum 3D7 assessed as inhibition of parasite proliferation. In kind it is functional, organism-based.
For data set [5], the system named is Plasmodium falciparum. The experiment in a line: Antimalarial activity against Plasmodium falciparum W2. In kind it is functional, organism-based.
Data set [6] deals with Plasmodium falciparum. The experiment in a line: Antimalarial activity against CQ-resistant Plasmodium falciparum K1 infected in human O+ erythrocytes assessed as parasite growth inhibition incubated for 48 hrs by SYBR Green I staining based analysis. Particulars: K1, Erythrocyte. In kind it is functional, organism-based.
Data set [7] concerns Plasmodium falciparum. The experiment in a line: Antimalarial activity against CQ-sensitive Plasmodium falciparum 3D7 infected in human O+ erythrocytes assessed as parasite growth inhibition incubated for 48 hrs by SYBR Green I staining based analysis. In kind it is functional, organism-based. The conditions noted are these: 3D7, Erythrocyte.
A short description of data set [8]: Cytotoxicity against African green monkey Vero cells after 72 hrs by MTT assay. In kind it is toxicity, cell-based. The conditions noted are these: chlorocebus sabaeus.
The test system of data set [9] is Plasmodium falciparum. Put plainly: Antimalarial activity against Plasmodium falciparum 3D7 at asexual stage infected in erythrocytes assessed as parasite growth inhibition incubated for 72 hrs by MSF assay. In kind it is functional, organism-based. Particulars: 3D7, Erythrocyte.
Data set [10] concerns Plasmodium falciparum. Put plainly: Antimalarial activity against Plasmodium falciparum D6. In kind it is functional, organism-based.
A short description of data set [11]: Cytotoxicity against African green monkey Vero cells assessed as cell growth inhibition incubated for 24 hrs by fluorescence based assay. In kind it is toxicity. Particulars: African green monkey (Chlorocebus sabaeus).
The subject of data set [12] is Plasmodium falciparum. Put plainly: Antiplasmodial activity against CQ-susceptible Plasmodium falciparum 3D7 assessed as parasite growth inhibition incubated for 72 hrs by SYBR Green I staining based analysis. In kind it is functional, organism-based. The conditions noted are these: 3D7, 72 h.
For data set [13], the system named is Plasmodium falciparum. The experiment in a line: Antiplasmodial activity against CQ-resistant Plasmodium falciparum W2 assessed as parasite growth inhibition incubated for 72 hrs by SYBR Green I staining based analysis. The conditions noted are these: W2, 72 h. In kind it is functional, organism-based.
Data set [14] deals with Plasmodium falciparum. The experiment in a line: Antiplasmodial activity against CQ-sensitive Plasmodium falciparum F32 Tanzania assessed as parasite growth inhibition incubated for 48 hrs. In kind it is functional, organism-based.
The subject of data set [15] is Plasmodium falciparum. Put plainly: Antimalarial activity against Plasmodium falciparum W2 assessed as parasite growth inhibition. In kind it is functional, organism-based.
The test system of data set [16] is Plasmodium falciparum. The experiment in a line: Antiplasmodial activity against Plasmodium falciparum K1 at asexual stage assessed as parasite growth inhibition. In kind it is functional, organism-based.
Data set [17] deals with Plasmodium falciparum. The experiment in a line: Antiplasmodial activity against CQ-sensitive Plasmodium falciparum NF54 at asexual stage assessed as parasite growth inhibition. In kind it is functional, organism-based.
Data set [18] deals with Plasmodium falciparum. The experiment in a line: Antimalarial activity against Plasmodium falciparum K1 assessed as parasite growth inhibition. In kind it is functional, organism-based.
The test system of data set [19] is Plasmodium falciparum. The experiment in a line: Antimalarial activity against Plasmodium falciparum 3D7 assessed as parasite growth inhibition. In kind it is functional, organism-based.
Data set [20] deals with Plasmodium falciparum. The experiment in a line: Antiplasmodial activity against Plasmodium falciparum 3D7 at asexual erythrocytic stage infected in human erythrocytes assessed as parasite growth inhibition incubated for 42 hrs by [3H]-hypoxanthine incorporation assay. In kind it is functional, organism-based. Particulars: 3D7, Erythrocyte.

Each structure is given as a SMILES string. In brackets after ≈: the same amount, converted by molar mass.

Take `COc1ccc2cc3[n+](cc2c1OCc1cn(-c2ccc(S(=O)(=O)N4CCCCC4)cc2)nn1)CCc1cc2c(cc1-3)OCO2.[Cl-]`: in the data set with Plasmodium falciparum [1], the IC50 was 0.8 µg/mL.

Turning to `O=C1c2nnn(Cc3cccc(Cl)c3)c2C(=O)c2nnn(Cc3cccc(Cl)c3)c21`, the IC50 with Plasmodium falciparum [2] was found to be 7.61 µM; with Plasmodium falciparum [3] it was 6.32 µM. As for `CCCCCn1nncc1CCNC(=O)[C@H](O)C(C)(C)CO`, the IC50 in the data set on Plasmodium falciparum [4] was more than 100 µM. In turn, `C[C@@H]1CC[C@H]2[C@@H](C)C(=O)O[C@@H]3O[C@@]4(C)CC[C@@H]1[C@]32OO4` [ARTEMISININ] returned an IC50 with Plasmodium falciparum [5] of 0.094 µM.

Consider `CC(C)(CO)[C@@H](O)C(=O)NCCc1cn(CCc2ccccc2)nn1`, for which the IC50 in the data set on Plasmodium falciparum [4] is 5.4 µM.

In the case of `CCCCCn1nncc1CNC(=O)[C@H](O)C(C)(C)CO`, the IC50 in the data set with Plasmodium falciparum [4] was determined as 36 µM.

Consider `Clc1ccc2c(-c3cn(CC(c4ccccc4)c4ccccc4)nn3)ccnc2c1`, for which the IC50 was found to be 72 µM in the data set on Plasmodium falciparum [6] and 91.8 µM with Plasmodium falciparum [7]. For the compound `CCCCn1cc(CCNC(=O)[C@H](O)C(C)(C)CO)nn1`, in the data set with Plasmodium falciparum [4], the IC50 came out at 3.3 µM. In data set [8], `O=C(Cn1cc(COc2ccc(Cl)cc2)nn1)NCCNc1ccnc2cc(Cl)ccc12` yielded a CC50 at 72 h of 86.8 µM. The IC50 with Plasmodium falciparum [9] came to 0.04 µM.

As for `CCCCCCCn1cc(CO)nn1`, the IC50 in the data set with Plasmodium falciparum [5] came out at 6.63 µM; in the data set with Plasmodium falciparum [10] it was 13.3 µM.

Turning to `COc1ccc2cc3[n+](cc2c1OCc1cn(-c2ccc(S(=O)(=O)N4CCN(C)CC4)cc2)nn1)CCc1cc2c(cc1-3)OCO2.[Cl-]`, the IC50 with Plasmodium falciparum [1] was 0.8 µg/mL.

As for `OB1OCc2cc(OCc3cn(CCN4CCN(c5ccnc6cc(Cl)ccc56)CC4)nn3)ccc21`, the IC50 at 24 h in data set [11] amounted to 82.4 µM. Also, the concentration for half-maximal inhibition (IC50) is 5.31 µM with Plasmodium falciparum [12] and 4.86 µM in the data set on Plasmodium falciparum [13].

`Clc1cccc(-n2cc(-c3cncc4ccccc34)nn2)c1`: the IC50 amounted to 95.8 µM with Plasmodium falciparum [6] and 365 µM in the data set on Plasmodium falciparum [7].

Consider `O=C1C=C(OCc2cn(C3=CC(=O)c4ccccc4C3=O)nn2)C(=O)c2ccccc21`, for which the IC50 in the data set with Plasmodium falciparum [14] amounted to 1.9 µM. `C=C[C@H]1CN2CC[C@H]1C[C@H]2[C@H](c1ccnc2ccccc12)n1cc(CCC)nn1`: the IC50 with Plasmodium falciparum [15] came to 1.99 µM.

As to `CCCn1cc(CCNC(=O)[C@H](O)C(C)(C)CO)nn1`, in the data set on Plasmodium falciparum [4], the IC50 is 5.3 µM.

For `COC(=O)C1=C(Cn2cc(CNc3ccnc4cc(Cl)ccc34)nn2)N(C)C(=O)NC1c1ccc(OC)cc1` (stereo not drawn), the IC50 with Plasmodium falciparum [16] came out at 0.422 µM; in the data set on Plasmodium falciparum [17], 0.18 µM. With `NC1=C(n2cc(COC3=CC(=O)c4ccccc4C3=O)nn2)C(=O)c2ccccc2C1=O`, the IC50 in the data set on Plasmodium falciparum [14] was more than 20 µM. Take `COc1cc(/C=C/C(=O)c2ccc(Cl)cc2)ccc1OCc1cn(-c2ccnc3cc(Cl)ccc23)nn1`: the values for the IC50 with Plasmodium falciparum [18] and with Plasmodium falciparum [19] were 3.55 µM and 4.12 µM, respectively. For the compound `NS(=O)(=O)c1ccc(-n2cc(COc3ccc(F)cc3)nn2)cc1`, the IC50 with Plasmodium falciparum [20] is 15.4 µg/mL (≈ 44.2 µM). In the case of `COC(=O)C1=C(Cn2cc(CNc3ccnc4cc(Cl)ccc34)nn2)NC(=O)NC1c1ccc(OC)cc1` (stereo not drawn), the IC50 with Plasmodium falciparum [16] is 0.567 µM; in the data set with Plasmodium falciparum [17] it was 0.245 µM. In the case of `O=C(Cn1cc(-c2ccccc2)nn1)NCCCNc1ccnc2cc(Cl)ccc12`, the half-maximal inhibitory concentration (IC50) with Plasmodium falciparum [9] was determined as 0.137 µM.

`O=C1c2nnn(Cc3cccc(F)c3)c2C(=O)c2nnn(Cc3cccc(F)c3)c21`: the half-inhibitory concentration (IC50) in the data set with Plasmodium falciparum [2] was determined as 0.583 µM; in the data set on Plasmodium falciparum [3], 0.679 µM. For `OB1OCc2cc(OCc3cn(-c4ccnc5ccc(Cl)cc45)nn3)ccc21`, the figures for the IC50 in the data set with Plasmodium falciparum [12] and in the data set with Plasmodium falciparum [13] were 4.87 µM and 5.22 µM, respectively. With `O=S(=O)(c1ccc(-n2cc(COc3ccccc3)nn2)cc1)N1CCCCC1`, the IC50 in the data set on Plasmodium falciparum [20] was more than 50 µg/mL. Regarding `CCCCCCCCCn1cc(C(=O)OC)nn1`, the values for the IC50 with Plasmodium falciparum [5] and in the data set with Plasmodium falciparum [10] were 6.67 µM and 11.2 µM, respectively. Turning to `O=C1C=C(OCc2cn(-c3ccc(CO)cc3)nn2)C(=O)c2ccccc21`, the IC50 in the data set with Plasmodium falciparum [14] turned out to be 9.7 µM. In the case of `COc1ccc2cc3[n+](cc2c1OCc1cn(-c2ccc(S(=O)(=O)Nc4ccc([N+](=O)[O-])cc4)cc2)nn1)CCc1cc2c(cc1-3)OCO2.Cl`, the IC50 in the data set with Plasmodium falciparum [1] amounted to 20 µg/mL. In the case of `O=C1c2nnn(Cc3cccc([N+](=O)[O-])c3)c2C(=O)c2nnn(Cc3cccc([N+](=O)[O-])c3)c21`, the IC50 came to 2.89 µM with Plasmodium falciparum [2] and 1.91 µM in the data set on Plasmodium falciparum [3].

For orientation: IC50 means the concentration at which inhibition is half-maximal. For orientation: CC50 means the concentration at which the toxic effect on the cells reaches its halfway point.
